# According to paper PMC12715756 (ACS Chemical Neuroscience, 2025):
# Assays:
# [1] = biological target: T1, DAT (Homo sapiens, UniProt Q01959); experiment: cell-based; settings: read-out: Emax [95%-CI], DAT mediated [3H]MPP+ release
# [2] = biological target: T2, SERT (Homo sapiens, UniProt P31645); experiment: Release (superfusion) assay, SERT mediated [3H]5-HT efflux; settings: for Emax: read-out: Emax [95%-CI], SERT mediated [3H]5-HT efflux
# [3] = biological target: T3, human organic cation transporter 1 (OCT1) (Homo sapiens, UniProt O15245); experiment: Uptake inhibition assay, [3H]MPP+ uptake in HEK293 cells
# T3 sequence (O15245 1-554): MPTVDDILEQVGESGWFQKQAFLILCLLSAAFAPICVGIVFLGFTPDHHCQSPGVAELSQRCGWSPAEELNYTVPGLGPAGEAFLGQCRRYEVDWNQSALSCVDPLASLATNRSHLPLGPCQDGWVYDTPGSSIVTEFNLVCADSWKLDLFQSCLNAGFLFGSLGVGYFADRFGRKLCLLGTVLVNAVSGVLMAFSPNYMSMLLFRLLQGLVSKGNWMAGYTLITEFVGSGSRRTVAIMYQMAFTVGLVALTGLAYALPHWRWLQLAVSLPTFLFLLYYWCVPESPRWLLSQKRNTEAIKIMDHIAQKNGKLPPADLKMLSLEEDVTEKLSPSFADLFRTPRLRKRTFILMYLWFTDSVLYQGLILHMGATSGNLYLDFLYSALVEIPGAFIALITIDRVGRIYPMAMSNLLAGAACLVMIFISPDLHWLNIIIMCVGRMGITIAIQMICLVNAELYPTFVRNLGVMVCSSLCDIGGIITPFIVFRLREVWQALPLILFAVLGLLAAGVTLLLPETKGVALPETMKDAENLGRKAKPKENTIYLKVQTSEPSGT
# [4] = Metabolic stability, substrate depletion in pooled human liver microsomes; settings: human, pooled human liver microsomes
# [5] = biological target: T4, 5-HT2B (Homo sapiens, UniProt P41595); experiment: Gq dissociation BRET assay in HEK293T cells; format: cell-based; settings: for EC50: Gq dissociation BRET; for Emax: HEK-293T, read-out: Emax ± SEM, %5-HT response 5-HT2B
# T4 construct: expressed in transfected cells; host or cells: HEK293T (ATCC; RRID:CVCL_0063), transient transfection
# T4 sequence (P41595 whole entry): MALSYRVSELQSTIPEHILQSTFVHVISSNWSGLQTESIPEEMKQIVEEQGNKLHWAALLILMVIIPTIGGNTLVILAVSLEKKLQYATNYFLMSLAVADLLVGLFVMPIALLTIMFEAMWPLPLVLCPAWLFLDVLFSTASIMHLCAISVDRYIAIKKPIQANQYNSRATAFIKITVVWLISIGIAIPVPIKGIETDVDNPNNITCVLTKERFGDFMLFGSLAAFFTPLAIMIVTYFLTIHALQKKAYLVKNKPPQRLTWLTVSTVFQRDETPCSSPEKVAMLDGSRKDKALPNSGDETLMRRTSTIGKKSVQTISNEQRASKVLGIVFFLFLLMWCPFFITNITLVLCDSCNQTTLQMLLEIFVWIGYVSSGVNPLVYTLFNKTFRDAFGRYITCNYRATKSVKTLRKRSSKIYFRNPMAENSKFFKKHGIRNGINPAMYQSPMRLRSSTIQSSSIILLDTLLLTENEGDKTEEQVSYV
# [6] = test system: male C57BL/6J mice; experiment: Head-twitch response (HTR); format: in vivo; settings: IP, 30 min, doses based on the salt form
# Experimental: (§1) Male Swiss CD-1 mice (Janvier, Le Genest, France), weighing 30–35 g and aged 6–8 weeks, were used for HLA, thigmotaxis, CPP, and core body temperature experiments. Animals were housed under temperature-controlled conditions (22 ± 1 °C) with a 12 h light/dark cycle and had free access to food and water (standard laboratory diet, Panlab SL, Barcelona, Spain). Doses for HLA, thigmotaxis, CPP, and core body temperature experiments were calculated based on the free base form of each compound. For HTR experiments, male C57BL/6J mice (6–8 weeks old) were obtained from Jackson Laboratories (Bar Harbor, ME, USA) and housed up to four per cage with a reversed light-cycle (lights on at 1900 h, off at 0700 h). Food and water were provided ad libitum, except during behavioral testing. Testing was conducted between 1000 and 1830 h. Doses for HTR experiments were calculated based on the respective salt forms of the compounds.
# The HTR was assessed using a head-mounted magnet and a magnetometer detection coil. Mice were anesthetized, a small incision was made in the scalp, and a small neodymium magnet was attached to the dorsal surface of the cranium by using dental cement. Following a two week recovery period, HTR experiments were carried out in a well-lit room with at least 7 days between sessions to avoid carryover effects. Mice (N = 4–7/group) received intraperitoneal (IP) injections of vehicle (saline) or test drug (5 mL/kg injection volume), and then activity was recorded in a glass cylinder surrounded by a magnetometer coil for 30 min. Doses for HTR experiments were calculated based on the respective salt forms of the compounds. Coil voltage was low-pass filtered (1 kHz cutoff frequency), amplified, digitized (20 kHz sampling rate, 16-bit ADC resolution), and saved to disk using a Powerlab 8/35 data acquisition system with LabChart software (ver. 8.1 ADInstruments, Colorado Springs, CO, USA). To detect head twitches, events in the recordings were transformed to scalograms, deep features were extracted using the deep convolutional neural network ResNet-50, and then the images were classified using a support vector machine (SVM). Head twitch counts were analyzed using one-way ANOVA. Posthoc comparisons were made using Dunnett’s test.
# [7] = biological target: T5, 5-HT2A (Homo sapiens, UniProt P28223); experiment: Gq dissociation BRET assay in HEK293T cells; format: cell-based; settings: for EC50 / Emax ± SEM, %5-HT response 5-HT2A: Gq dissociation BRET; for Emax ± SEM, %5-HT response 5-HT2A: relative to 5-HT; for Emax: HEK-293T, read-out: Emax ± SEM, %5-HT response 5-HT2A, Gq dissociation BRET, relative to 5-HT
# T5 construct: expressed in transfected cells; host or cells: HEK293T (ATCC; RRID:CVCL_0063), transient transfection
# T5 sequence (P28223 whole entry): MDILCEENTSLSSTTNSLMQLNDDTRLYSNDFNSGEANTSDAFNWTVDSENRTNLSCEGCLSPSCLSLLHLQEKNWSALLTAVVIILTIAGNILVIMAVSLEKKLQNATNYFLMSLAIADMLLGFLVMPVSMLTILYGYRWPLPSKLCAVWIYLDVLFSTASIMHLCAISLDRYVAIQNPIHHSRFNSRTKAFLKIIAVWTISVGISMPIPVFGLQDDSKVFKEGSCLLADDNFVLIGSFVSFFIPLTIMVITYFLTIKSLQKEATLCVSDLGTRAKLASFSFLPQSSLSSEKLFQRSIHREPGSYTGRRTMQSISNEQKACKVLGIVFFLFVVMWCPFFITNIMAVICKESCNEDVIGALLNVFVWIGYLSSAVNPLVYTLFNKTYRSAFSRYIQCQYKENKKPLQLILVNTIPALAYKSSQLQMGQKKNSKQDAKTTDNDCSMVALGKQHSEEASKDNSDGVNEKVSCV
# [8] = biological target: T6, NET (Homo sapiens, UniProt P23975); experiment: Release (superfusion) assay, NET mediated [3H]MPP+ release; settings: for Emax: read-out: Emax [95%-CI], NET mediated [3H]MPP+ release
# T6 sequence (P23975 whole entry, the tested form may be a part): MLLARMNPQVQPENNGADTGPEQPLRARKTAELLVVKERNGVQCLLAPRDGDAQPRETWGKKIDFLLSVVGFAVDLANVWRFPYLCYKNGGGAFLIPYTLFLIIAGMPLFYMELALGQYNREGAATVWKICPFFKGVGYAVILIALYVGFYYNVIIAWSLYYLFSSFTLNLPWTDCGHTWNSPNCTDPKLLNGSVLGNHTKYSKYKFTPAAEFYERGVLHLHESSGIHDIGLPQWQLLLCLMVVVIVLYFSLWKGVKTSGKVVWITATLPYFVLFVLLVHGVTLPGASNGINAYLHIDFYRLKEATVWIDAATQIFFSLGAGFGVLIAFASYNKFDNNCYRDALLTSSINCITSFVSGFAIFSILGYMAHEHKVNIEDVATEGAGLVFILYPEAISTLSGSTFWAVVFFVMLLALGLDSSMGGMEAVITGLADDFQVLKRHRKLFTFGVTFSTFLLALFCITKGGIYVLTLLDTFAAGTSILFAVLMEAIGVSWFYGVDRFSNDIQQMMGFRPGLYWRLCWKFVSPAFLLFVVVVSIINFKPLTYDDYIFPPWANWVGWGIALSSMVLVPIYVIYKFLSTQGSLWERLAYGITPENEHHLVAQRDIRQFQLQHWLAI
# [9] = test system: DAT; settings: incubation at IC50 concentration for 60 min
# [10] = biological target: T7, OCT2 (Homo sapiens, UniProt O15244); experiment: Uptake inhibition assay, [3H]MPP+ uptake in HEK293 cells
# T7 sequence (O15244 1-555): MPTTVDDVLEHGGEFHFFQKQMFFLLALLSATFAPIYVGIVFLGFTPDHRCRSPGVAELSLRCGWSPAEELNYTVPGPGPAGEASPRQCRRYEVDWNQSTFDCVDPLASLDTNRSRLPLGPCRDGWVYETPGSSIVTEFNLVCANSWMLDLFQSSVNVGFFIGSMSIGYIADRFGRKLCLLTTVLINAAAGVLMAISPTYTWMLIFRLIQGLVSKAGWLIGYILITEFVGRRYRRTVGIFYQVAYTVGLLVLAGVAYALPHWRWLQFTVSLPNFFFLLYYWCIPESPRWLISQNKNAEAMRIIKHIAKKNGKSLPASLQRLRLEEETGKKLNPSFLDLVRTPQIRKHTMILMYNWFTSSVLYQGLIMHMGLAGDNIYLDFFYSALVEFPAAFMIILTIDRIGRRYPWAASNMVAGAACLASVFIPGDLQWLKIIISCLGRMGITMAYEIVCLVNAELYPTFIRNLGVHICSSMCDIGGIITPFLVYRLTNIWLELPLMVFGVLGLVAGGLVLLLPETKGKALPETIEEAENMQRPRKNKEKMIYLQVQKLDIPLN
# [11] = biological target: T1, DAT
# [12] = biological target: T6, NET; experiment: Uptake inhibition assay, [3H]MPP+ uptake in HEK293 cells; format: cell-based; set-up: expressed in transfected cells
# [13] = biological target: T2, SERT; experiment: Uptake inhibition assay, [3H]5-HT uptake in HEK293 cells; format: cell-based; set-up: expressed in transfected cells
# [14] = test system: male Swiss CD-1 mice; experiment: Conditioned place preference (CPP); format: in vivo; settings: 10 mg/kg i.p., compared to saline
# Experimental: as §1
# For this experiment, an apparatus with two distinct compartments, differing in tactile and visual cues, connected by a central corridor, was used. The conditioned place preference (CPP) procedure consisted of three phases: preconditioning, conditioning, and postconditioning. In the preconditioning phase (day 0), mice were placed in the middle of the corridor and allowed to freely explore both compartments for 15 min. The time spent in each compartment was recorded and monitored using specific tracking software (Smart 3.0 Panlab, Barcelona, Spain). In the conditioning phase (day 1–day 8), access to the corridor was closed. […] On alternate days, , mice received a saline i.p. injection and were placed in the other compartment for 30 min. Mice in the control group received a saline injection in every session. The compartments and sessions in which the drug was administered were randomized. In the postconditioning phase (test day), the same conditions as the preconditioning phase were reinstated. A preference score was determined by calculating the difference in time spent in the drug-paired compartment between the post- and preconditioning phases.
# [15] = pHLM; literature data ref 9 (Alberto-Silva et al., 2024); cited from earlier work
# [16] = test system: NGF-differentiated PC12 cells; experiment: Cytotoxicity, WST-8 assay; settings: 24 hours
# T1 sequence (Q01959 whole entry, the tested form may be a part): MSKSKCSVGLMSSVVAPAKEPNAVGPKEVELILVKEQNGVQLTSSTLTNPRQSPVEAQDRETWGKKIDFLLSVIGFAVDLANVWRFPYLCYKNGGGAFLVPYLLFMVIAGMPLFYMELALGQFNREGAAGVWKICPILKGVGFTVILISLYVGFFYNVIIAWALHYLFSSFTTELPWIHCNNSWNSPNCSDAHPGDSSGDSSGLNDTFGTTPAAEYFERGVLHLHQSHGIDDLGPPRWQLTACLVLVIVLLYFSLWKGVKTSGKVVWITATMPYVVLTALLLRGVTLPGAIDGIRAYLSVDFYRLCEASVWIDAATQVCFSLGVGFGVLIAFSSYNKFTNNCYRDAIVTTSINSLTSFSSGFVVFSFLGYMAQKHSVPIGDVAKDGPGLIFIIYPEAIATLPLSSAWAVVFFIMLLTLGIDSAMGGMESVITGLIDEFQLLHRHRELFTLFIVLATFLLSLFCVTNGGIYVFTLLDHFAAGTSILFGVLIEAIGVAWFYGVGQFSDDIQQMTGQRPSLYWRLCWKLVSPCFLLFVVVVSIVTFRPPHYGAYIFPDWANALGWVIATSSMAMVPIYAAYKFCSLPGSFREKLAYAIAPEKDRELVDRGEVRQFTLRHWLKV
# T2 sequence (P31645 whole entry, the tested form may be a part): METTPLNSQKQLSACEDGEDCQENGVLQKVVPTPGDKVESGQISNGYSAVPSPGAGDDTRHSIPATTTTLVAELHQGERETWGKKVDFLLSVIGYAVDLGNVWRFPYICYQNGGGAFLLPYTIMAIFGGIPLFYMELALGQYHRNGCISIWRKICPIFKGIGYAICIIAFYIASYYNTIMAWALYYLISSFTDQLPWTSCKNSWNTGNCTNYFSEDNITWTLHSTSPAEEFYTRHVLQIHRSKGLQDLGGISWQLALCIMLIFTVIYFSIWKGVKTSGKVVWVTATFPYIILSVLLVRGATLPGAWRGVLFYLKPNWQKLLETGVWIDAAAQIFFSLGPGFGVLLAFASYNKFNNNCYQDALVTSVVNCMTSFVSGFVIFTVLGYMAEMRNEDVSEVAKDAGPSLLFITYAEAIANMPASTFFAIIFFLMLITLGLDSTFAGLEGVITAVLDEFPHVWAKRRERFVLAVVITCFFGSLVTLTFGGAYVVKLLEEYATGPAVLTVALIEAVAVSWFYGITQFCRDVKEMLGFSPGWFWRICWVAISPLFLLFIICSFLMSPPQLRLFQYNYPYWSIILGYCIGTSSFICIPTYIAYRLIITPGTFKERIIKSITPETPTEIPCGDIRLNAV
SMILES,Emax [1],EC50 [2],type of releaser at SERT [2],Emax [2],IC50 [3],EC50 ([5]; EC50 5-HT2B),Emax [5],HTR counts [6],EC50 ([7]; EC50 5-HT2A),"Emax ± SEM, %5-HT response 5-HT2A [7]",Emax [7],EC50 [8],type of releaser at NET [8],Emax [8],IC50 [10],type of releaser at DAT [11],IC50 [12],IC50 [13],also measured
"CC(N)Cc1ccc2c(c1)OCO2 (stereo not shown) [MDA, 3,4-Methylenedioxyamphetamine, reference compound]",67.2%,4.35 µM,partial releasers,45.5%,6.93 ± 2.63 µM,0.139 µM,104 ± 4.9%,dose-related increase in HTR counts peaking at 3 mg/kg,0.905 µM,87.8 ± 2.4%,> 70%,0.35 µM,full releasers,126%,5.13 ± 1.18 µM,partial releasers,3.33 ± 0.47 µM,22.9 ± 2.27 µM,half-life at 0.5 μM [4]: > 2.5 h; transporter expression on plasma membrane level [9]: expression levels slightly increased
"CNC(C)Cc1ccc2c(c1)OCO2 (stereo not shown) [MDMA, 3,4-Methylenedioxymethamphetamine, reference compound]",43.1%,1.95 µM,partial releasers,39.3%,5.09 ± 3.14 µM,0.531 µM,59.9 ± 5.1%,Neither MDMA nor SDMA induced an appreciable increase in HTR counts,3.13 µM,66.0 ± 2.3%,< 70%,0.73 µM,full releasers,111%,5.3 ± 0.25 µM,partial releasers,3.17 ± 0.72 µM,6.47 ± 0.93 µM,EC50 ([5]; pEC50 ± SEM 5-HT2B): 0.525 µM; rewarding effects (CPP preference score) [14]: induce rewarding effects; EC50 ([7]; pEC50 ± SEM 5-HT2A): 3.09 µM; in vitro half-life (t1/2) [15]: > 2.5 h; concentration at which cytotoxicity starts [16]: 2000 µM
